Results published in patent publication US8642644B2, “Ophthamological drugs” (Duke University, priority 2004, dated 2014).
One block for each molecule: values may come before it.

Assays:
[1] = test system: intraocular pressure (IOP); test: Effects on intraocular pressure (IOP) after topical administration to normotensive Dutch-belted rabbits (Example 15); type: in vivo, rabbit; conditions: for Maximum reduction of IOP (absolute) / Maximum reduction of IOP (percent): once a day for three days
Description: In order to study the utility of the compounds in the treatment of glaucoma, their effects on intraocular pressure (IOP) were investigated following administration to normotensive rabbits.
5-O-Ribitol [2,3-dichloro-4-(thiophene-2-carbonyl)]phenoxyacetate: 10% and 15% in a lanolin base.
5-O-Xylitol 4-(2-phenylacryloyl)cinnamate: 0.3% and 0.6% mixed equimolar with cysteine in solution.
11-Hydroxy-3,6,9-trioxaundecyl 4-(2-phenylacryloyl)cinnamate: 0.3% and 0.6% mixed equimolar with cysteine in solution.
Eyedrops administered topically to male Dutch-belted rabbits (3-5 kg). IOP determinations made with pneumatonometer (Medtronic Solan, Jacksonville, Fla.) as the average of three measurements per eye at each timepoint. Prior to IOP determination and drug administration, eyes were topically anesthetized with proparacaine hydrochloride, 0.5% (Bausch and Lomb, Inc, Tampa, Fla.).
5-O-Ribitol [2,3-dichloro-4-(thiophene-2-carbonyl)]phenoxyacetate: Eyedrops containing the compound were administered once a day for three days. The contralateral eye was administered lanolin base. IOP was assessed in the morning and afternoon for seven days.
5-O-Xylitol 4-(2-phenylacryloyl)cinnamate: Eyedrops containing the compound were administered twice daily for 7 days. The contralateral eye was left untreated to serve as a control. IOP was assessed concurrently with drug administration.
5-O-{(9α,11α,15R)-15-[2-Benzo[b]thiophen-2-yl]-16,17,18,19,20-pentanor-5,6,13,14-tetrahydro-9,11,15-trihydroxyprostanoyl}xylitol: Eyedrops containing the compound were administered once daily for 7 days. No drug was given on days 8 and 9. The animals were then treated once daily on days 10 through 14. IOP was assessed concurrently with drug administration.
1-O-{(9α,11α,15R)-15-[2-Benzo[b]thiophen-2-yl]-16,17,18,19,20-pentanor-5,6,13,14-tetrahydro-9,11,15-trihydroxyprostanoyl}-11-hydroxy-3,6,9-trioxaundecane: Eyedrops containing the compound were administered once daily for 5 days. The contralateral eye was left untreated to serve as a control. IOP was assessed concurrently with drug administration.
11-Hydroxy-3,6,9-trioxaundecyl 4-(2-phenylacryloyl)cinnamate: Eyedrops containing the compound were administered twice daily for 7 days. The contralateral eye was left untreated to serve as a control. IOP was assessed concurrently with drug administration.

[2] = Activity against glaucoma (stated in words)
intraocular pressure [3] = test: Intraocular pressure lowering by 0.004% AR101 solution in the Dutch Belted rabbit model (Example 6); type: in vivo; conditions: 0.004% solution; loading dose 3 drops day 0 and 10, one drop daily days 1-7 and 10-14; versus contralateral control eye
Description: The xylitol prostaglandin ester of Formula V (also called AR101) was formulated as a 0.004% solution for topical administration. The Dutch Belted Rabbit model was used to test the formulation for both pressure lowering and side effects. Baseline intraocular pressures were obtained by placing one drop of proparacaine in each eye followed by pressure measurements with a Pneumotonometer®. One eye of each rabbit received a loading dose of 3 drops 0.004% AR101 on day 0 and day 10. One drop of AR101 was given daily on days 1-7 and 10-14. No drug was given on days 8 and 9. The contralateral control eye received balanced salt solution drops without AR101. Intraocular pressure measurements were recorded every 12 hours for two weeks.

intraocular pressure [4] = test: Intraocular pressure lowering by ticrynafen-ribitol ester ointment in the Dutch Belted rabbit model (Example 3); type: in vivo; conditions: for Maximal pressure reduction: topical, doses at 0, 24 and 48 hours
Procedure: Ticrynafen-ribitol ester was formulated as an ointment in 5, 10, and 15% concentrations. The Dutch Belted rabbit model was used to test the formulation for both pressure lowering and side effects. Baseline intraocular pressures were obtained by placing one drop of proparacaine in each eye followed by pressure measurements utilizing a Pneumotonometer®. […] The second eye was used as a control with application of lanolin ointment without drug. Repeat doses were given at 24 hour intervals for a total of three doses (0, 24, and 48 hours). Intraocular pressures were recorded every 12 hours for one week. A total of twelve rabbits received the 5% ointment, eight rabbits the 10% ointment, and eight rabbits the 15% ointment. FIG. 4 presents the 10% data with statistically significant timepoints indicated by double asterisks.

[5] = Solubility in petrolatum/lanolin mixtures; type: physicochemical
[6] = 0.004% in solution, once daily for 5 days
[7] = 0.02% in solution, once daily for 5 days
[8] = 0.3% mixed equimolar with cysteine in solution, twice daily for 7 days
[9] = 0.6% mixed equimolar with cysteine in solution, twice daily for 7 days
[10] = 0.004% in solution, once daily days 1-7 and 10-14
[11] = 10% in lanolin base, at 36 hours
[12] = 15% in lanolin base, at 60 hours

Procedure for pig liver esterase: Since the sugar alcohol moiety imparts water-solubility to the compounds, an assay can be readily set up to determine the optimal sugar alcohol for each drug moiety based on the release rate thus: A commercially-available preparation of esterase, such as porcine liver esterase (Sigma Corp., St. Louis), is prepared at a standard concentration. The drug-sugar alcohol combination, dissolved in methanol or a methanol-water or methanol-acetonitrile combination, is added dropwise to the esterase and the rate at which the compound is released from the alcohol is determined. The analytical technique used to determine the amount of free acid will vary with the acid used, but a typical procedure would be by TLC, or reverse-phase TLC, or HPLC or by Mass Spectroscopy. One skilled in the art can readily determine the optimal analytical method for each sugar-acid pair evaluated. This assay can easily be adapted to be run in a 96-well plate format, or other high-throughput method of determining activity.

SMILES: O=C(CCCCCC[C@@H]1[C@@H](CCC(O)c2cc3ccccc3s2)[C@H](O)C[C@@H]1O)OCCOCCOCCOCCO (stereo partly drawn) [1-O-{(9α,11α,15R)-15-[2-Benzo[b]thiophen-2-yl]-16,17,18,19,20-pentanor-5,6,13,14-tetrahydro-9,11,15-trihydroxyprostanoyl}-11-hydroxy-3,6,9-trioxaundecane]
- Maximum reduction from untreated control [1, 6]: −2.8 mmHg
- Maximum reduction from untreated control (percent) [1, 6]: 12%
- Maximum reduction from untreated control [1, 7]: −3.0 mmHg
- Maximum reduction from untreated control (percent) [1, 7]: 17%

SMILES: C=C(C(=O)c1ccc(/C=C/C(=O)OC[C@@H](O)[C@H](O)[C@@H](O)CO)cc1)c1ccccc1 [Formula VIII, 5-O-Xylitol 4-(2-phenylacryloyl)cinnamate]
- Maximum reduction from untreated control [1, 8]: −2.4 mmHg
- Maximum reduction from untreated control (percent) [1, 8]: 11%
- Maximum reduction from untreated control [1, 9]: −2.4 mmHg
- Maximum reduction from untreated control (percent) [1, 9]: 13%

SMILES: C=C(C(=O)c1ccc(C=CC(=O)OCCOCCOCCOCCO)cc1)c1ccccc1 [11-Hydroxy-3,6,9-trioxaundecyl 4-(2-phenylacryloyl)cinnamate]
- Maximum reduction from untreated control [1, 8]: −1.7 mmHg
- Maximum reduction from untreated control (percent) [1, 8]: 8%
- Maximum reduction from untreated control [1, 9]: −1.9 mmHg
- Maximum reduction from untreated control (percent) [1, 9]: 8%

SMILES: O=C(O)CCCCCC[C@@H]1[C@@H](CC[C@@H](O)c2cc3ccccc3s2)[C@H](O)C[C@@H]1O [Formula II]
- Activity against glaucoma, in words [2]: strong activity against glaucoma

- Hydrolysis by pig liver esterase (pig liver esterase): readily hydrolyzed
SMILES: O=C(CCCCCC[C@@H]1[C@@H](CC[C@@H](O)c2cc3ccccc3s2)[C@H](O)C[C@@H]1O)OC[C@@H](O)[C@H](O)[C@@H](O)CO [Formula V, 5-O-{(9α,11α,15R)-15-[2-Benzo[b]thiophen-2-yl]-16,17,18,19,20-pentanor-5,6,13,14-tetrahydro-9,11,15-trihydroxyprostanoyl}xylitol]
- Significant reductions of IOP from baseline (days) [1, 10]: Significant reductions from baseline on days 2, 3, 5, 11, and 12
- Significant reductions of IOP from baseline and untreated control (days) [1, 10]: Significant reductions from baseline and untreated control on days 3, 5, and 11
- Statistically significant pressure reductions between eyes (days) (intraocular pressure [3]): Statistically significant pressure reductions between eyes were observed on days 3, 7, and 11

SMILES: O=C(O)COc1ccc(C(=O)c2cccs2)c(Cl)c1Cl [Formula IV, Ticrynafen]
- Activity against glaucoma, in words [2]: little or no activity

- Solubility in petrolatum/lanolin mixtures [5]: completely soluble
SMILES: O=C(COc1ccc(C(=O)c2cccs2)c(Cl)c1Cl)OC[C@H](O)[C@H](O)[C@H](O)CO [Formula III, 5-O-Ribitol [2,3-dichloro-4-(thiophene-2-carbonyl)]phenoxyacetate]
- Maximal pressure reduction (intraocular pressure [4]; 5% ointment, maximum at 54 hours): 11%
- Maximal pressure reduction (intraocular pressure [4]; 10% ointment, maximum at 36 hours): 18%
- Maximal pressure reduction (intraocular pressure [4]; 15% ointment, maximum at 60 hours): 13%
- Reduction of intraocular pressure (IOP), in words (intraocular pressure [4]; Dutch-Belted white rabbits, petrolatum/lanolin ointment): reduces intraocular pressure (IOP) in a dose-dependent fashion
- Maximum reduction of IOP (absolute) [1, 11]: −4.3
- Maximum reduction of IOP (percent) [1, 11]: 18%
- Maximum reduction of IOP (absolute) [1, 12]: −3.0
- Maximum reduction of IOP (percent) [1, 12]: 13%
